Consider one compound from article PMC9122897, “SHR1032, a novel STING agonist, stimulates anti-tumor immunity and directly induces AML apoptosis” (Scientific Reports, 2022).

Structures are written as SMILES.

In general, EC50 refers to the concentration at which the effect is half-maximal.

One assay relates to THP1 reporter cells. Briefly: THP1 IRF luciferase reporter assay. It is filed as cell-based. The conditions noted are these: Homo sapiens, THP-1; IRF Lucia luciferase reporter, 24 h; read-out: THP1 reporter cell EC50. The text has this: We sought to develop small molecule compounds with increased STING agonist activity against human STING. GSK reported a series of non-CDN small molecules, represented by compound 1[13], with good human STING agonistic activity. Based on our molecular modeling analysis, along with the reported CDN-STING crystal structures, we designed a novel series of fused tricyclic heterocycle compounds and analyzed their binding to human STING with thermal shift assays and the potency in activation of STING signaling with a reporter cellular assay (Supplementary Table S1). Thermal shift assays measure the difference between apo STING and ligand bound STING in the inflection point at which 50% of protein is thermally unfolded (ΔTm). […] The ability of compounds to activate the IRF reporter gene in the THP1 cells was also evaluated.
THP1 reporter cells were treated for 24 h with a total of 100 k cells and 150 ul media in each well a 96-well plate. […] Luminescence signal was measured using Tecan infinite M1000. EC50 values were calculated using non-linear regression analysis of GraphPad Prism. Cell growth was monitored by CellTiter-Glo Luminescent Cell Viability Assay (Promega) per manufacture’s protocol. GI50 values were calculated using non-linear regression analysis of GraphPad Prism. […]
(A reporter such as luciferase makes a cellular process visible.)

Assay [1] concerns MV4-11 cells. Put plainly: RNA-seq differentially expressed genes. It is filed as cell-based, human. The conditions noted are these: MV4-11, 1 µM, 4 h. On the procedure:
(§1) Figure 5 Cell apoptosis induced by SHR1032 in AML cell lines is independent of type I interferon. (a–d) RNA-Seq analysis of THP1-STING-R232, THP1-STING-KO and MV4-11 AML cells treated with 1 µM of SHR1032 for 4 h. […] (d) ANNEXIN V staining analysis with flow cytometry in MV4-11, MOLM-16, THP1-STING-WT and THP1-STING-KO cells. (e) Cell viability analysis by CellTiter Glo in THP1-IRFAR2-WT or -KO cells.
(§2) RNA was extracted from cells using RNeasy Plus Mini Kit (Qiagen). Library preparation with NEBNext Ultra II with PolyA selection, sequencing with NovaSeq and data analysis was performed by Admera Health, New Jersey. The De-Seq2 (version 1.14.1) was used to do the differential analysis. Gene expression levels were quantified as Fragments Per Kilobase Million (FPKM). Gene expression with FPKM value ≥ 0.5 were selected and Log2-transformed for the Differential Gene Expression (DEGs) analysis using iDEP (http://bioinformatics.sdstate.edu/idep/). DEGs were defined by p < 0.05 within each indicated paired-comparison and then used for Gene Ontology Analysis and heatmap generation. The Gene Ontology Analysis was done using Enrichr. The heatmap was created using R package gplots (version 3.1.1), function heatmap.2.

Assay [2] concerns THP1-STING-WT cells. Briefly: RNA-seq differentially expressed genes. Type of assay: cell-based, human. The conditions noted are these: 1 µM, 4 h. On the procedure:
as §1, §2

The next assay concerns MOLM-16 cells. Briefly: Annexin V staining by flow cytometry. Type of assay: cell-based, human. Particulars: MOLM-16, 16 h; compared to cytarabine. The procedure:
as §1
(§3) Cells were incubated with compounds or DMSO for 16 h in a 6-well plate (0.5 × 10^6 cells/well in 2 ml of media). After incubation, cells were collected and washed once in stain buffer (BD Biosciences). Samples were stained with FITC_Annexin V (BioLegend) for 15 min at room temperature. Then the cells were washed twice and resuspended in 200 µl stain buffer, and analyzed with Guava EasyCyte (Millipore).
A general note: In flow cytometry, cells or beads pass a laser one at a time.

Assay [3] deals with MV4-11 cells. Briefly: Annexin V staining by flow cytometry. Type of assay: cell-based, human. Particulars: MV4-11, 16 h; compared to cytarabine. The procedure:
as §1, §3

The test system of another assay is THP1-STING-KO cells. Put plainly: Annexin V staining by flow cytometry. Type of assay: cell-based, human. Particulars: 16 h. The procedure: as §1, §3
For assay [4], the system named is THP1-STING-WT cells. Briefly: Annexin V staining by flow cytometry. Type of assay: cell-based, human. Particulars: 16 h, compared to cytarabine. The procedure:
as §1, §3

In another assay the test system is THP1-STING-R232 cells. Briefly: IFNβ ELISA. The conditions noted are these: THP1-STING-R232, 5 h, vs ADU-S100. Type of assay: cell-based, human. On the procedure:
Figure 2 SHR1032 specifically and potently activates STING signaling pathway. IRF luciferase reporter assays in (a) THP1-STING-R232, THP1-STING-H232, THP1-STING-HAQ, and THP1-STING-KO cells. Cells were stimulated for 24 h with the indicated STING compounds and assessed for luciferase activity. IFNβ production and activation of cGAS-STING signaling pathway in (b) human THP1-STING-R232, human PBMCs from a donor homozygous for the R232 variant, cynomolgus PBMC, and mouse RAW164.7 macrophage cells were treated with STING agonists for 5 h. IFNβ in media was quantified by human or mouse ELISA kits respectively. (c) THP1-STING-R232 cells and mouse RAW164.7 macrophage cells were stimulated with 40 µM of ADU-S100 or 10 µM of SHR1032 for the indicated time points. The amount of pTBK1, total TBK1, STING and α-tubulin was measured by western blotting.
Human and Cynomolgous PBMC’s were thawed and spun down in Lymphocyte media (ZENBIO) and resuspended in media to 1.5 x 10^6 cells/ml density. […] Human and monkey IFN-β protein concentration was measured using human IFN-β Quantikine ELISA Kits (R&D Systems) per manufacture’s protocol. Mouse IFN-β was measured using mouse IFN-β Quantikine ELISA Kits (R&D Systems) per manufacture’s protocol. Mouse TNFα, IFN-β and IL-6 in the tumor lysates and plasma was measured by Quantikine ELISA Kits (R&D Systems) per manufacture’s protocol.
For orientation: An ELISA detects its analyte on a solid surface through an enzyme-linked reagent.

As for `CCn1nc(C)cc1C(=O)Nc1nc2cc(C(N)=O)cc(OC)c2n1CCC[C@H]1COc2cc(C(N)=O)cc3nc(NC(=O)c4cc(C)nn4CC)n1c23` [SHR1032], in the assay on THP1 reporter cells, the EC50 stood at 30 nM. The figures for the “Genes differentially expressed: Down-expressed” value with MV4-11 cells [1] and in the assay with THP1-STING-WT cells [2] were 216 and 73, respectively. For the same compound, the “Genes differentially expressed: Up-expressed” value in the assay on MV4-11 cells [1] was determined as 324; in the assay with THP1-STING-WT cells [2], 224. In addition, the “apoptosis (Annexin V)” value is reported as “much higher level of apoptosis” in the assay on MOLM-16 cells, “much higher level of apoptosis” with MV4-11 cells [3], “no effect” in the assay on THP1-STING-KO cells and “comparable level of apoptosis” with THP1-STING-WT cells [4]. The IFNβ induction entry in the assay on THP1-STING-R232 cells was “much higher level of IFNβ”.
